{"source": "patent US7842802B2", "about": "“Vinorelbine derivatives” (priority 2003, dated 2010)", "key": {"OVCAR-3": {"test_system": "OVCAR-3", "assay": "NCI 60-cell line growth inhibition assay, OVCAR-3", "type": "cell-based, human", "settings": "Ovarian", "source_text": "(§1) The following data in Table 4 summarize the growth inhibition properties of several compounds of the present invention against 60-human transformed cell lines."}, "HT29": {"test_system": "HT29", "assay": "NCI 60-cell line growth inhibition assay, HT29", "type": "cell-based, human", "source_text": "as §1"}, "NCI/ADR-RES": {"test_system": "NCI/ADR-RES", "assay": "NCI 60-cell line growth inhibition assay, NCI/ADR-RES", "type": "cell-based, human", "settings": "Breast", "source_text": "as §1"}, "NCI-H322M": {"test_system": "NCI-H322M", "assay": "NCI 60-cell line growth inhibition assay, NCI-H322M", "type": "cell-based, human", "settings": "Non-Small Cell Lung", "source_text": "as §1"}, "IGROV1": {"test_system": "IGROV1", "assay": "NCI 60-cell line growth inhibition assay, IGROV1", "type": "cell-based, human", "source_text": "as §1"}, "786-0": {"test_system": "786-0", "assay": "NCI 60-cell line growth inhibition assay, 786-0", "type": "cell-based, human", "settings": "Renal", "source_text": "as §1"}, "A498": {"test_system": "A498", "assay": "NCI 60-cell line growth inhibition assay, A498", "type": "cell-based, human", "settings": "Renal", "source_text": "as §1"}, "CAKI-1": {"test_system": "CAKI-1", "assay": "NCI 60-cell line growth inhibition assay, CAKI-1", "type": "cell-based, human", "settings": "Renal", "source_text": "as §1"}, "HS 578T": {"test_system": "HS 578T", "assay": "NCI 60-cell line growth inhibition assay, HS 578T", "type": "cell-based, human", "settings": "Breast", "source_text": "as §1"}, "BT-549": {"test_system": "BT-549", "assay": "NCI 60-cell line growth inhibition assay, BT-549", "type": "cell-based, human", "settings": "Breast", "source_text": "as §1"}, "HCT-116": {"test_system": "HCT-116", "assay": "NCI 60-cell line growth inhibition assay, HCT-116", "type": "cell-based, human", "settings": "Colon", "source_text": "as §1"}, "SW-620": {"test_system": "SW-620", "assay": "NCI 60-cell line growth inhibition assay, SW-620", "type": "cell-based, human", "settings": "Colon", "source_text": "as §1"}, "DU-145": {"test_system": "DU-145", "assay": "NCI 60-cell line growth inhibition assay, DU-145", "type": "cell-based, human", "settings": "Prostate", "source_text": "as §1"}, "NCI-H23": {"test_system": "NCI-H23", "assay": "NCI 60-cell line growth inhibition assay, NCI-H23", "type": "cell-based, human", "settings": "Non-Small Cell Lung", "source_text": "as §1"}, "MDA-MB-231/ATCC": {"test_system": "MDA-MB-231/ATCC", "assay": "NCI 60-cell line growth inhibition assay, MDA-MB-231/ATCC", "type": "cell-based, human", "settings": "Breast", "source_text": "as §1"}, "UACC-257": {"test_system": "UACC-257", "assay": "NCI 60-cell line growth inhibition assay, UACC-257", "type": "cell-based, human", "settings": "Melanoma", "source_text": "as §1"}, "EKVX": {"test_system": "EKVX", "assay": "NCI 60-cell line growth inhibition assay, EKVX", "type": "cell-based", "settings": "Homo sapiens, Non-Small Cell Lung", "source_text": "as §1"}, "SK-OV-3": {"test_system": "SK-OV-3", "assay": "NCI 60-cell line growth inhibition assay, SK-OV-3", "type": "cell-based", "settings": "Homo sapiens, Ovarian", "source_text": "as §1"}, "OVCAR-5": {"test_system": "OVCAR-5", "assay": "NCI 60-cell line growth inhibition assay, OVCAR-5", "type": "cell-based", "settings": "Homo sapiens, Ovarian", "source_text": "as §1"}, "SK-MEL-5": {"test_system": "SK-MEL-5", "assay": "NCI 60-cell line growth inhibition assay, SK-MEL-5", "type": "cell-based", "settings": "Homo sapiens, Melanoma", "source_text": "as §1"}, "MOLT-4": {"test_system": "MOLT-4", "assay": "NCI 60-cell line growth inhibition assay, MOLT-4", "type": "cell-based", "settings": "Homo sapiens, Leukemia", "source_text": "as §1"}, "HCC-2998": {"test_system": "HCC-2998", "assay": "NCI 60-cell line growth inhibition assay, HCC-2998", "type": "cell-based", "settings": "Homo sapiens, Colon", "source_text": "as §1"}, "SNB-19": {"test_system": "SNB-19", "assay": "NCI 60-cell line growth inhibition assay, SNB-19", "type": "cell-based", "settings": "Homo sapiens, CNS", "source_text": "as §1"}, "SK-MEL-28": {"test_system": "SK-MEL-28", "assay": "NCI 60-cell line growth inhibition assay, SK-MEL-28", "type": "cell-based", "settings": "Homo sapiens, Melanoma", "source_text": "as §1"}, "OVCAR-4": {"test_system": "OVCAR-4", "assay": "NCI 60-cell line growth inhibition assay, OVCAR-4", "type": "cell-based", "settings": "Homo sapiens, Ovarian", "source_text": "as §1"}, "COLO 205": {"test_system": "COLO 205", "assay": "NCI 60-cell line growth inhibition assay, COLO 205", "type": "cell-based", "settings": "Homo sapiens, Colon", "source_text": "as §1"}}}
{"compound": "11′-bromovinorelbine [Example 1]", "values": [{"measurement": "GI50", "setting": "OVCAR-3", "result": "< 10", "unit": "nM"}, {"measurement": "GI50", "setting": "HT29; Colon", "result": "< 10", "unit": "nM"}, {"measurement": "GI50", "setting": "NCI/ADR-RES", "result": 152, "unit": "nM"}, {"measurement": "GI50", "setting": "NCI-H322M", "result": "< 10", "unit": "nM"}, {"measurement": "GI50", "setting": "IGROV1; Ovarian", "result": "< 10", "unit": "nM"}, {"measurement": "GI50", "setting": "786-0", "result": "< 10", "unit": "nM"}, {"measurement": "GI50", "setting": "A498", "result": "< 10", "unit": "nM"}, {"measurement": "GI50", "setting": "CAKI-1", "result": "< 10", "unit": "nM"}, {"measurement": "GI50", "setting": "HS 578T", "result": 679, "unit": "nM"}, {"measurement": "GI50", "setting": "BT-549", "result": "< 10", "unit": "nM"}, {"measurement": "GI50", "setting": "HCT-116", "result": "< 10", "unit": "nM"}, {"measurement": "GI50", "setting": "SW-620", "result": "< 10", "unit": "nM"}, {"measurement": "GI50", "setting": "DU-145", "result": "< 10", "unit": "nM"}, {"measurement": "GI50", "setting": "NCI-H23", "result": "< 10", "unit": "nM"}, {"measurement": "GI50", "setting": "MDA-MB-231/ATCC", "result": "< 10", "unit": "nM"}, {"measurement": "GI50", "setting": "UACC-257", "result": 5730, "unit": "nM"}]}
{"compound": "CCC1=C[C@H]2CN(C1)Cc1c([nH]c3ccc(I)cc13)[C@@](C(=O)OC)(c1cc3c(cc1OC)N(C)[C@H]1[C@@](O)(C(=O)OC)[C@H](OC(C)=O)C4C(CC)=CCN5CC[C@]31[C@H]45)C2", "note": "(some centres unmarked) [Example 2, 11′-iodovinorelbine]", "values": [{"measurement": "GI50", "setting": "HT29; Homo sapiens, HT-29, Colon", "result": 10.3, "unit": "nM"}, {"measurement": "GI50", "setting": "EKVX", "result": 72.6, "unit": "nM"}, {"measurement": "GI50", "setting": "NCI/ADR-RES; Homo sapiens", "result": 5280, "unit": "nM"}, {"measurement": "GI50", "setting": "IGROV1; Homo sapiens, IGROV-1, Ovarian", "result": 32.4, "unit": "nM"}, {"measurement": "GI50", "setting": "SK-OV-3", "result": 63.3, "unit": "nM"}, {"measurement": "GI50", "setting": "OVCAR-5", "result": 225, "unit": "nM"}, {"measurement": "GI50", "setting": "SK-MEL-5", "result": 18.8, "unit": "nM"}, {"measurement": "GI50", "setting": "HS 578T; Homo sapiens", "result": 19.2, "unit": "nM"}, {"measurement": "GI50", "setting": "MOLT-4", "result": 24.1, "unit": "nM"}, {"measurement": "GI50", "setting": "HCC-2998", "result": "< 10", "unit": "nM"}, {"measurement": "GI50", "setting": "SW-620; Homo sapiens", "result": 37.8, "unit": "nM"}, {"measurement": "GI50", "setting": "DU-145; Homo sapiens", "result": 25.7, "unit": "nM"}, {"measurement": "GI50", "setting": "NCI-H23; Homo sapiens", "result": 52.8, "unit": "nM"}, {"measurement": "GI50", "setting": "SNB-19", "result": 62.5, "unit": "nM"}, {"measurement": "GI50", "setting": "MDA-MB-231/ATCC; Homo sapiens", "result": 77.2, "unit": "nM"}, {"measurement": "GI50", "setting": "SK-MEL-28", "result": 91.4, "unit": "nM"}, {"measurement": "GI50", "setting": "OVCAR-4", "result": 264, "unit": "nM"}, {"measurement": "GI50", "setting": "COLO 205", "result": 17.9, "unit": "nM"}, {"measurement": "GI50", "setting": "UACC-257; Homo sapiens", "result": 3430, "unit": "nM"}]}
